`Oc1c(F)c(F)c(O)c(F)c1F`: the melting point fell in the range of 172 to 174 °C.

The molecule `CN(C)c1ccc(/C=C(/C#N)c2nc(-c3ccc(Cl)cc3)cs2)cc1` came in with a melting point of 133 °C.

For `NC(=O)C1(C(=O)O)CC1`, the melting point is 184 to 189 °C.

As for `O=C(O)CCCCCl`, the melting point was found to be 18 °C.

`O=C1CCC2C1C1CCC(=O)C21` (stereo unspecified): the melting point came out at 266 °C.

As for `Cc1nn(-c2ccccc2)c(C)c1C(=O)Cl`, the melting point fell in the range of 58 to 59 °C.

With `CC(C)(C)OC(=O)Nc1ccc(CN)cc1`, the melting point was 89 to 94 °C.

`C=CC1=C(C=NNc2ccc([N+](=O)[O-])cc2[N+](=O)[O-])CCCC1` yielded a melting point of 152 to 153 °C.

Turning to `CC12NC(Cc3ccccc31)c1ccccc12` (stereo unspecified), the melting point amounted to 68.8 °C.

`Cn1nc(C(C)(C)C)cc1C(=O)O` displayed a melting point of 151 to 154 °C.

On to `O=Cc1ccc(-c2cccc(C(=O)O)c2)cc1`, for which the melting point amounted to 166 °C.

`O=C1NC(=S)SC1=Cc1cccc(C=C2SC(=S)NC2=O)c1` returned a melting point of 316 °C.

Take `Cn1c(=O)oc(=O)c2ccccc21`: the melting point turned out to be 165 °C.

As for `Nc1c([N+](=O)[O-])sc2ccccc12`, the melting point was in the range of 220 to 221 °C.

The molecule `O=C(CBr)c1cccc(C(=O)CBr)c1` yielded a melting point of 91 °C.

In the case of `COC(=O)c1ccccc1NC(C)=O`, the melting point was 97 to 101 °C.

For `O=c1[nH]c(=O)n(C2CC(O)C(CO)O2)cc1C(F)(F)F` (stereo unspecified), the melting point was found to be 188 °C.

In turn, `C=Cc1c(C)cc(C)cc1C` gave a melting point of -37 °C.

Consider `Cc1ccc(C(C)(C)C)cc1S`, for which the melting point was -10 °C.

Molecule `COC(=O)c1cc(C)ccc1O` returned a melting point of -1 °C.

Regarding `Cc1nc(O)ccc1[N+](=O)[O-]`, the melting point came to 235 °C.

`NNC(=S)Nc1cccc(F)c1` registered a melting point of 164 to 166 °C.

As to `O=C(O)Cc1ccsc1`, the melting point amounted to 79 °C.

As to `O=C=Nc1ccc(Cl)cc1`, the melting point was found to be 30 °C.

In turn, `FC(F)(F)c1ccc2[nH]c(S)nc2c1` had a melting point of 277 to 279 °C.

The molecule `CC(C)(C)c1cc(C(C)(C)c2ccc(O)c(C(C)(C)C)c2)ccc1O` registered a melting point of 114 °C.

In turn, `COC(=O)Cn1ccnc1[N+](=O)[O-]` came in with a melting point of 96 °C.

`CCCCc1ccc(NC(C)=O)cc1` yielded a melting point of 107 to 109 °C.

In turn, `O=C(O)c1ccc(-c2ccccc2)s1` returned a melting point of 188 to 192 °C.

Consider `O=[N+]([O-])c1ccc(F)c(Cl)c1`, for which the melting point came to 44 °C.

Take `CCCCOc1c(-c2nnc(-c3ccc(Cl)cc3)o2)sc(-c2nnc(-c3ccc(Cl)cc3)o2)c1OCCCC`: the melting point came to 178 °C.

`COc1ccc2ccccc2c1Br` had a melting point of 80 °C.

`O=C1CCC2(CC1)OCCO2`: the melting point is 74 to 76 °C.

The molecule `O=C(Oc1c(F)c(F)c(F)c(F)c1F)c1ccncc1` came in with a melting point of 47.5 to 55.5 °C.

In turn, `CC(C)N(C1=NC(=Cc2ccccc2)C(=O)N1c1ccccc1)C(C)C` registered a melting point of 167 °C.

As for `Cc1cc(C)c(S(=O)(=O)n2ccnc2)c(C)c1`, the melting point is 95 to 99 °C.

As to `O=C1NN=C(C(F)(F)F)C1=NNc1ccc(Br)cc1`, the melting point worked out at 212 °C.

With `Cc1cc(N=C2c3ccccc3CN2c2cc(C)on2)no1`, the melting point is 191 °C.

The molecule `CC12C=CC(=O)C=C1C(F)CC1C2C(O)CC2(C)C1CCC2(O)C(=O)CO` (stereo unspecified) showed a melting point of 210 °C.

`COc1nsc(Nc2ccc(Cl)cc2)n1` returned a melting point of 247 to 249 °C.

Take `O=C(Nc1ccc(F)cc1)c1c(O)c(F)c(F)c(F)c1F`: the melting point turned out to be 130 °C.

With `CC(C)Oc1cc(N)c(Cl)cc1Cl`, the melting point was determined as 42 °C.

Regarding `N#Cc1ccc(N)c(Br)c1`, the melting point was in the range of 106 to 111 °C.

Molecule `CC(=O)c1ccc(Oc2ccc(Cl)cc2)cc1Cl` showed a melting point of 54 to 56 °C.

For the molecule `C=CCOC1(C#Cc2ccccc2)Cc2ccccc21` (stereo unspecified), the melting point turned out to be 50 °C.

Molecule `NNC(=O)c1ccc[nH]1` returned a melting point of 232 to 235 °C.

Molecule `Fc1ccc(Br)nc1` displayed a melting point of 28.5 °C.

`NC(CCc1ccccc1)CC(=O)O` (stereo unspecified) showed a melting point of 223 to 227 °C.

`CNc1ncc(C(F)(F)F)cc1[N+](=O)[O-]`: the melting point was 98 to 100 °C.

Regarding `CC1(C)CCC(=O)CC1`, the melting point stood at 42 °C.

As for `Ic1ccc(N2CCOCC2)nc1`, the melting point is 133 °C.

On to `O=C(O)c1ccnc(N2CCCC2)c1`, for which the melting point was 211 to 212 °C.

In turn, `Nc1ccccc1COc1ccccc1` returned a melting point of 78 °C.

For the molecule `OCCC1CCCCC1`, the melting point was -20 °C.

Molecule `COc1ccc(CNC2=CC(=O)c3ccccc3C2=O)cc1` gave a melting point of 164 °C.

As for `Cc1ccc2cccc-2cc1`, the melting point lay in the range of 82 to 83 °C.

As for `CCOC(=O)c1cc2cc(C=O)c(N)cc2[nH]c1=O`, the melting point fell in the range of 154 to 157 °C.

As to `CCC(C)c1cccc(C(C)CC)c1O` (stereo unspecified), the melting point was -42 °C.

As for `O=S(=O)(Cl)c1ccc(Br)cc1C(F)(F)F`, the melting point is 62 to 63 °C.

On to `CC(=O)NCCc1c[nH]c2ccc(O)cc12`, for which the melting point lay in the range of 120 to 122 °C.

On to `Clc1ccc2ccccc2c1`, for which the melting point came out at 61 °C.

`O=C(O)c1ccc(-n2cccc2)cc1`: the melting point was in the range of 288 to 291 °C.

For the molecule `OC(CCN1CCCCC1)(c1ccccc1)C1CC2C=CC1C2` (stereo unspecified), the melting point was found to be 114 °C.

Molecule `CC1=C(C(=O)OC(C)C)C(c2ccco2)NC(=S)N1` (stereo unspecified) registered a melting point of 191 °C.

`O=C1OC(C(Cl)(Cl)Cl)Cc2ccccc21` (stereo unspecified) gave a melting point of 119 °C.

`CC1=C(C)C([Si](C)(C)C2C(C)=C(C)C(C)=C2C)C(C)=C1C` registered a melting point of 65 to 68 °C.

The molecule `CO[C@@H](C)[C@H](N)C(=O)O` showed a melting point of 220 to 224 °C.

With `Ic1cccc(CN2CCOCC2)c1`, the melting point lay within 32 to 34 °C.

With `COc1ccc2c(c1)=NC1=C(C)NCCC=21`, the melting point turned out to be 230 °C.

As for `O=C(O)C(C(F)(F)F)C(F)(F)F`, the melting point was determined as 52 °C.

`c1ccc(C/C(=N\Nc2ccccc2)c2ccc3ccccc3c2)cc1` showed a melting point of 165 to 167 °C.

The molecule `CC(C)OC(=O)C(C)N(C(=O)c1ccccc1)c1ccc(F)c(Cl)c1` (stereo unspecified) showed a melting point of 84 °C.

On to `COC(=O)c1ccc(CC(C#N)(Cc2ccc(C(=O)OC)cc2)c2ccc(CC(C)C)cc2)cc1`, for which the melting point turned out to be 115 °C.

The molecule `Clc1ccc(Br)cn1` gave a melting point of 70 °C.

`CC12CCC3(CC1CCC1C2CCC2(C)C1CCC2(C)O)OCCO3` (stereo unspecified) came in with a melting point of 192 to 193 °C.

For the molecule `CC(=O)OCCc1ccc(CCOC(C)=O)cc1`, the melting point is 65 °C.

The molecule `Clc1cc2oc3cc(Cl)c(Cl)cc3c2cc1Cl` showed a melting point of 227 °C.

Turning to `FC(F)(F)c1nnc2sc(=S)[nH]n12`, the melting point came to 160 °C.

In the case of `O=C(O)C(Br)=C(Br)C(=O)O`, the melting point lay in the range of 119 to 125 °C.

In the case of `CC(C)c1cccc2ccccc12`, the melting point is -16 °C.

Consider `CC(C)n1c2c(c(=O)[nH]c1=O)CCCC2`, for which the melting point was 229 to 230 °C.

`CCSc1nc(NC(C)C)nc(NC(C)C)n1` displayed a melting point of 105 °C.

`Cn1c(/C(C#N)=N/Nc2ccc(C(=O)O)cc2)nc2ccccc21` yielded a melting point of 200 °C.

As for `CC1CC=CC2(O1)OC1CC(=O)OC1C1(O)C(=O)c3ccccc3C(=O)C21O` (stereo unspecified), the melting point amounted to 238 °C.

`O=c1cc[nH]c2c1cnn2-c1ccccc1` returned a melting point of 166 to 168 °C.

For the molecule `CCCCCCCl`, the melting point was -94 °C.

In turn, `CCOP(=S)(OCC)Oc1cnccn1` showed a melting point of -1.7 °C.

Molecule `CN(C)c1ccc(/C=C2\C(=O)C3CCC(C)(C2=O)C3(C)C)cc1` (stereo unspecified) showed a melting point of 152 to 153 °C.

Molecule `N#Cc1ccc(OCCN2CCOCC2)cc1` returned a melting point of 87 to 90 °C.

For the molecule `FC(F)(F)c1cc(Cl)c2nc(S)[nH]c2c1`, the melting point lay in the range of 310 to 312 °C.

On to `CC(=O)OC[C@H]1O[C@@H](O[C@H]2[C@H](OC(C)=O)[C@@H](OC(C)=O)[C@@H](OC(C)=O)O[C@@H]2COC(C)=O)[C@H](OC(C)=O)[C@@H](OC(C)=O)[C@@H]1OC(C)=O`, for which the melting point was determined as 230 °C.

With `Cc1nc(/C(C#N)=C\c2ccc(Cl)cc2Cl)sc1/N=N/c1ccc(F)cc1`, the melting point lay within 138 to 140 °C.

The molecule `FC(F)C(F)F` registered a melting point of -89 °C.

The molecule `O=C(O)c1ccc(-c2ccc(O)cc2)cc1` had a melting point of 316 °C.

In turn, `COc1ccc(C(O)c2ccccc2)cc1` (stereo unspecified) came in with a melting point of 67 °C.

Regarding `Nc1ncnc(Nc2ccccc2)n1`, the melting point is 236 °C.

On to `CN(CC(=O)O)C(=O)COC(=O)c1ccccc1`, for which the melting point is 106 °C.

Regarding `CSc1nc(=O)n(C2CCCCC2)c2c1CCC2`, the melting point was 192 to 194 °C.

`CCCC(c1ccc(O)cc1)c1ccc(O)cc1` displayed a melting point of 137 °C.

Molecule `CCC(O)C(CC(C)N(C)C)(c1ccccc1)c1ccccc1` (stereo unspecified) yielded a melting point of 127 °C.

The molecule `Cc1noc(C)c1CO` gave a melting point of 76 to 77 °C.

`CCOC(=O)CON=C(c1cc2ccccc2o1)C1CC(C)(c2ccccc2)C1` (stereo unspecified) displayed a melting point of 155 to 156 °C.

`CCOc1ccc(OCC)c(N)c1` displayed a melting point of 85 °C.

As for `Cc1cccc2c1C/C2=N/Nc1ccc([N+](=O)[O-])cc1[N+](=O)[O-]`, the melting point worked out at 227 °C.

`Cn1c(=O)c(C2=NNC(=O)C2=CNc2nccs2)c(O)c2ccccc21` gave a melting point of 248 °C.

Regarding `CC(=O)OC1CCC2(C)C3CCC4=C(CCC4(C)C(C)OC(C)=O)C3CCC2(C)C1` (stereo unspecified), the melting point lay in the range of 117 to 119 °C.

Take `O=C(O)CCC(F)(F)C(F)(F)C(F)(F)F`: the melting point is 38 to 39 °C.

The molecule `CC(C(O)c1ccccc1)N(C)C` (stereo unspecified) gave a melting point of 87.5 °C.

`CCOC(=O)c1cc(-c2ccc(Br)s2)on1` showed a melting point of 51 to 53 °C.

`Cc1csc2ncnc(NN)c12` displayed a melting point of 182 to 183 °C.

As for `CC1(C)OC(C)(C(O)(Cc2ccccc2)Cc2ccccc2)CCC1C(=O)O` (stereo unspecified), the melting point was 137 to 138 °C.

(Values after a melting point compilation (Tetko et al.).)
